According to patent US9540377B2, “2,6,7,8 substituted purines as HDM2 inhibitors” (Merck Sharp & Dohme Corp., priority 2013, dated 2017):

What follows are compounds tested against HDM2 (truncated, residues 17 to 125, containing p53 binding surface) (Homo sapiens (Human), UniProt Q00987) (assay: HDM2 FRET assay (inhibition of binding of FITC labeled p53-site peptide to HDM2)). Details: Table 16.
From the text: IC50 DETERMINATIONS: Dose-response curves were plotted from the inhibition data, from 10 point serial dilutions of inhibitory compounds. Concentration of compound was plotted against em520/Cem495 ratio signal. To generate IC50 values, the dose-response curves were fitted to a standard sigmoidal curve and IC50 values were derived by nonlinear regression analysis.

HDM2 (truncated, residues 17 to 125, containing p53 binding surface), sequence (Q00987 17-125): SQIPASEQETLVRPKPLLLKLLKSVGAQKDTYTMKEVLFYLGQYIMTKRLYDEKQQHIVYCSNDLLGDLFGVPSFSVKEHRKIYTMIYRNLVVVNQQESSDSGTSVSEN

Row | SMILES | IC50 [nM]
1 | COC(C)(C)C1CCCN1c1nc2nc(-c3n[nH]c(=O)o3)nc(-c3cccc(Cl)c3)c2n1C[C@H]1CC[C@H](C)CC1 (single isomer, unassigned) [Example 16.70, 5-{6-(3-chlorophenyl)-8-[2-(1-methoxy-1-methylethyl)pyrrolidin-1-yl]-7-[(trans-4-methylcyclohexyl)methyl]-7H-purin-2-yl}-1,3,4-oxadiazol-2(3H)-one] | 2.29
2 | C[C@H]1CC[C@H](Cn2c(N3CCOC4CCCCC43)nc3nc(-c4noc(=O)[nH]4)nc(-c4cccc(Cl)c4)c32)CC1 (single isomer, unassigned) [Example 16.77, 3-(6-(3-chlorophenyl)-7-[(trans-4-methylcyclohexyl)methyl]-8-(octahydro-4H-1,4-benzoxazin-4-yl)-7H-purin-2-yl]-1,2,4-oxadiazol-5(4H)-one] | 29.7
3 | COC(C)(C)C1CCCN1c1nc2nc(-c3n[nH]c(=O)o3)nc(-c3cccc(Cl)c3)c2n1C[C@H]1CC[C@H](C)CC1 (single isomer, unassigned) [Example 16.71, 5-{6-(3-chlorophenyl)-8-[2-(1-methoxy-1-methylethyl)pyrrolidin-1-yl]-7-[(trans-4-methylcyclohexyl)methyl]-7H-purin-2-yl}-1,3,4-oxadiazol-2(3H)-one] | 2.47
4 | COCCOc1cc(Cl)cc(-c2nc(-c3noc(=O)[nH]3)nc3nc(N4CCO[C@@H]5CCC[C@H]54)n(C[C@H]4CC[C@H](C)CC4)c23)c1 (racemic) [Example 16.160, 3-{6-[3-chloro-5-(2-methoxyethoxyl)phenyl]-8-[(trans)-hexahydrocyclopenta[b][1,4]oxazin-4(4aH)-yl]-7-[(trans-4-methylcyclohexyl)methyl]-7H-purin-2-yl}-1,2,4-oxadiazol-5(4H)-one] | 21
5 | Cc1noc(C2CCCN2c2nc3nc(-c4n[nH]c(=O)o4)nc(-c4cncc(Cl)c4)c3n2C[C@H]2CC[C@H](C)CC2)n1 (mixture of isomers) [Example 16.146, 5-{6-(5-chloropyridin-3-yl)-7-[(trans-4-methylcyclohexyl)methyl]-8-[2-(3-methyl-1,2,4-oxadiazol-5-yl)pyrrolidin-1-yl]-7H-purin-2-yl}-1,3,4-oxadiazol-2(3H)-one] | 3.04
6 | C[C@H]1CC[C@H](Cn2c(N3CCCC4COCCC43)nc3nc(-c4n[nH]c(=O)o4)nc(-c4cccc(Cl)c4)c32)CC1 (single isomer, unassigned) [Example 16.124, 5-{6-(3-chlorophenyl)-8-(hexahydro-2H-pyrano[4,3-b]pyridin-1(5H)-yl)-7-[(trans-4-methylcyclohexyl)methyl]-7H-purin-2-yl}-1,3,4-oxadiazol-2(3H)-one] | 263

Same assay, conditions: Table 18

Row | SMILES | IC50 [nM]
7 | CC([C@H]1CC[C@H](C)CC1)n1c(N2CCOC3CCCC32)nc2nc(-c3noc(=O)[nH]3)nc(-c3cccc(Cl)c3)c21 (single isomer, unassigned) [Example 18.40, 3-{6-(3-chlorophenyl)-8-(hexahydrocyclopenta[b][1,4]oxazin-4(4aH)-yl)-7-[1-(trans-4-methylcyclohexyl)ethyl]-7H-purin-2-yl}-1,2,4-oxadiazol-5(4H)-one] | 7.86
8 | CC([C@H]1CC[C@H](C)CC1)n1c(N2CCOC3CCCC32)nc2nc(-c3noc(=O)[nH]3)nc(-c3cncc(Cl)c3)c21 (single isomer, unassigned) [Example 18.53, 3-{6-(5-chloropyridin-3-yl)-8-(hexahydrocyclopenta[b][1,4]oxazin-4(4aH)-yl)-7-[1-(trans-4-methylcyclohexyl)ethyl]-7H-purin-2-yl}-1,2,4-oxadiazol-5(4H)-one] | 7.36
9 | CC([C@H]1CC[C@H](C)CC1)n1c(N2CCOC3CCCC32)nc2nc(-c3n[nH]c(=O)o3)nc(-c3cccc(Cl)c3)c21 (single isomer, unassigned) [Example 18.39, 5-{6-(3-chlorophenyl)-8-(hexahydrocyclopenta[b][1,4]oxazin-4(4aH)-yl)-7-[1-(trans-4-methylcyclohexyl)ethyl]-7H-purin-2-yl}-1,3,4-oxadiazol-2(3H)-one] | 3.73
10 | CC([C@H]1CC[C@H](C)CC1)n1c(N2CCOC3CCCC32)nc2nc(-c3noc(=O)[nH]3)nc(-c3cccc(Cl)c3)c21 (single isomer, unassigned) [Example 18.37, 3-{6-(3-chlorophenyl)-8-(hexahydrocyclopenta[b][1,4]oxazin-4(4aH)-yl)-7-[1-(trans-4-methylcyclohexyl)ethyl]-7H-purin-2-yl}-1,2,4-oxadiazol-5(4H)-one] | 2.21

Same assay, conditions: Table 23

Row | SMILES | IC50 [nM]
11 | COCC(C)(OC)c1nc2nc(-c3noc(=O)[nH]3)nc(-c3cncc(Cl)c3)c2n1C[C@H]1CC[C@H](C)CC1 (mixture of isomers) [Example 23.107, 3-{6-(5-chloropyridin-3-yl)-8-(1,2-dimethoxy-1-methylethyl)-7-[(trans-4-methylcyclohexyl)methyl]-7H-purin-2-yl}-1,2,4-oxadiazol-5(4H)-one] | 5.37
12 | COC(c1nc2nc(-c3n[nH]c(=O)o3)nc(-c3cccc(Cl)c3)c2n1C[C@H]1CC[C@H](C)CC1)C1CCCCC1 (mixture of isomers) [Example 23.15, 5-{6-(3-chlorophenyl)-8-[cyclohexyl(methoxy)methyl]-7-[(trans-4-methylcyclohexyl)methyl]-7H-purin-2-yl}-1,3,4-oxadiazol-2(3H)-one] | 23
13 | CC(F)(c1ncccc1F)c1nc2nc(-c3noc(=O)[nH]3)nc(-c3cncc(Cl)c3)c2n1C[C@H]1CC[C@H](C)CC1 (single isomer, unassigned) [Example 23.98, 3-{6-(5-chloropyridin-3-yl)-8-[1-fluoro-1-(3-fluoropyridin-2-yl)ethyl]-7-[(trans-4-methylcyclohexyl)methyl]-7H-purin-2-yl}-1,2,4-oxadiazol-5(4H)-one] | 9.74
14 | COC(c1nc2nc(-c3n[nH]c(=O)o3)nc(-c3cncc(Cl)c3)c2n1C[C@H]1CC[C@H](C)CC1)C1CCCC1 (mixture of isomers) [Example 23.23, 5-{6-(5-chloropyridin-3-yl)-8-[cyclopentyl(methoxy)methyl]-7-[(trans-4-methylcyclohexyl)methyl]-7H-purin-2-yl}-1,3,4-oxadiazol-2(3H)-one] | 8.78
15 | C[C@H]1CC[C@H](Cn2c(C(F)C3CCCCC3)nc3nc(-c4noc(=O)[nH]4)nc(-c4cccc(Cl)c4)c32)CC1 (mixture of isomers) [Example 23.29, 3-{6-(3-chlorophenyl)-8-[cyclohexyl(fluoro)methyl]-7-[(trans-4-methylcyclohexyl)methyl]-7H-purin-2-yl}-1,2,4-oxadiazol-5(4H)-one] | 34.8
16 | CC(F)(c1nc2nc(-c3n[nH]c(=O)o3)nc(-c3cncc(Cl)c3)c2n1C[C@H]1CC[C@H](C)CC1)C1CCCC1 (mixture of isomers) [Example 23.58, 5-{6-(5-chloropyridin-3-yl)-8-(1-cyclopentyl-1-fluoroethyl)-7-[(trans-4-methylcyclohexyl)methyl]-7H-purin-2-yl}-1,3,4-oxadiazol-2(3H)-one] | 1.95
17 | COC(C)(c1ncccc1F)c1nc2nc(-c3n[nH]c(=O)o3)nc(-c3cncc(Cl)c3)c2n1C[C@H]1CC[C@H](C)CC1 (single isomer, unassigned) [Example 23.87, 5-{6-(5-chloropyridin-3-yl)-8-[1-(3-fluoropyridin-2-yl)-1-methoxyethyl]-7-[(trans-4-methylcyclohexyl)methyl]-7H-purin-2-yl}-1,3,4-oxadiazol-2(3H)-one] | 19.6
18 | CC1CCCCC1(F)c1nc2nc(-c3n[nH]c(=O)o3)nc(-c3cncc(Cl)c3)c2n1C[C@H]1CC[C@H](C)CC1 (single isomer, unassigned) [Example 23.82, 5-{6-(5-chloropyridin-3-yl)-8-(1-fluoro-2-methylcyclohexyl)-7-[(trans-4-methylcyclohexyl)methyl]-7H-purin-2-yl}-1,3,4-oxadiazol-2(3H)-one] | 7.63
19 | C[C@H]1CC[C@H](Cn2c(C(O)C3CCCCC3)nc3nc(-c4n[nH]c(=O)o4)nc(-c4cccc(Cl)c4)c32)CC1 (mixture of isomers) [Example 23.7, 5-{6-(3-chlorophenyl)-8-[cyclohexyl(hydroxy)methyl]-7-[(trans-4-methylcyclohexyl)methyl]-7H-purin-2-yl}-1,3,4-oxadiazol-2(3H)-one] | 20.2
20 | CC(O)(c1nc2nc(-c3n[nH]c(=O)o3)nc(-c3cccc(Cl)c3)c2n1C[C@H]1CC[C@H](C)CC1)C1CCCCC1 (mixture of isomers) [Example 23.11, 5-{6-(3-chlorophenyl)-8-(1-cyclohexyl-1-hydroxyethyl)-7-[(trans-4-methylcyclohexyl)methyl]-7H-purin-2-yl}-1,3,4-oxadiazol-2(3H)-one] | 214
21 | COC(c1nc2nc(-c3n[nH]c(=O)o3)nc(-c3cncc(Cl)c3)c2n1C[C@H]1CC[C@H](C)CC1)C1CCCCC1 (mixture of isomers) [Example 23.22, 5-{6-(5-chloropyridin-3-yl)-8-[cyclohexyl(methoxy)methyl]-7-[(trans-4-methylcyclohexyl)methyl]-7H-purin-2-yl}-1,3,4-oxadiazol-2(3H)-one] | 12
22 | CC(c1c(F)cccc1F)c1nc2nc(-c3noc(=O)[nH]3)nc(-c3cncc(Cl)c3)c2n1C[C@H]1CC[C@H](C)CC1 (mixture of isomers) [Example 23.115, 3-{6-(5-chloropyridin-3-yl)-8-[1-(2,6-difluorophenyl)ethyl]-7-[(trans-4-methylcyclohexyl)methyl]-7H-purin-2-yl}-1,2,4-oxadiazol-5(4H)-one] | 2.23
23 | CC(F)(c1c(F)cccc1F)c1nc2nc(-c3noc(=O)[nH]3)nc(-c3cncc(Cl)c3)c2n1C[C@H]1CC[C@H](C)CC1 (single isomer, unassigned) [Example 23.68, 3-{6-(5-chloropyridin-3-yl)-8-[1-(2,6-difluorophenyl)-1-fluoroethyl]-7-[(trans-4-methylcyclohexyl)methyl]-7H-purin-2-yl}-1,2,4-oxadiazol-5(4H)-one] | 4.26
24 | CC(c1ccccc1F)c1nc2nc(-c3n[nH]c(=O)o3)nc(-c3cncc(Cl)c3)c2n1C[C@H]1CC[C@H](C)CC1 (mixture of isomers) [Example 23.114, 5-{6-(5-chloropyridin-3-yl)-8-[1-(2-fluorophenyl)ethyl]-7-[(trans-4-methylcyclohexyl)methyl]-7H-purin-2-yl}-1,3,4-oxadiazol-2(3H)-one] | 2.13
